± gives the expanded uncertainty stated by the source.
Settings: Liquid, Vibrating tube method

In the case of `CCCCCCC(=O)OCC(COC(=O)CCCCCC)(COC(=O)CCCCCC)COC(=O)CCCCCC` [pentaerythritol tetraheptanoate], the mass density (323.15 K, 32352 kPa) is reported as 976 ± 1.2 kg/m3, the mass density (323.15 K, 32396 kPa) is reported as 976 ± 1.2 kg/m3 and the mass density (323.15 K, 32734 kPa) is reported as 976.2 ± 1.2 kg/m3. For the same compound, the mass density (323.15 K, 32779 kPa) was 976.2 ± 1.2 kg/m3, the mass density (323.15 K, 32824 kPa) was 976.2 ± 1.2 kg/m3 and the mass density (323.15 K, 32870 kPa) was 976.3 ± 1.2 kg/m3. For the same compound, the mass density (323.15 K, 32924 kPa) was 976.3 ± 1.2 kg/m3, the mass density (323.15 K, 32970 kPa) was 976.3 ± 1.2 kg/m3 and the mass density (323.15 K, 33016 kPa) was 976.4 ± 1.2 kg/m3. It also gave a mass density (323.15 K, 33072 kPa) of 976.4 ± 1.2 kg/m3, a mass density (323.15 K, 33118 kPa) of 976.4 ± 1.2 kg/m3 and a mass density (323.15 K, 33164 kPa) of 976.4 ± 1.2 kg/m3. For the same compound, the mass density (323.15 K, 33219 kPa) was 976.5 ± 1.2 kg/m3, the mass density (323.15 K, 33314 kPa) was 976.4 ± 1.2 kg/m3 and the mass density (323.15 K, 33463 kPa) was 976.7 ± 1.2 kg/m3. The mass density (323.15 K, 33519 kPa) was 976.7 ± 1.2 kg/m3, the mass density (323.15 K, 33566 kPa) was 976.7 ± 1.2 kg/m3 and the mass density (323.15 K, 33612 kPa) was 976.6 ± 1.2 kg/m3. For the same compound, the mass density (323.15 K, 33657 kPa) was 976.7 ± 1.2 kg/m3, the mass density (323.15 K, 33718 kPa) was 976.7 ± 1.2 kg/m3 and the mass density (323.15 K, 33778 kPa) was 976.7 ± 1.2 kg/m3. The mass density (323.15 K, 33830 kPa) was 976.8 ± 1.2 kg/m3, the mass density (323.15 K, 33882 kPa) was 976.7 ± 1.2 kg/m3 and the mass density (323.15 K, 33940 kPa) was 976.9 ± 1.2 kg/m3. The mass density (323.15 K, 33970 kPa) was 976.8 ± 1.2 kg/m3, the mass density (323.15 K, 34065 kPa) was 976.9 ± 1.2 kg/m3 and the mass density (323.15 K, 34098 kPa) was 977 ± 1.2 kg/m3. For the same compound, the mass density (323.15 K, 34123 kPa) was 977 ± 1.2 kg/m3, the mass density (323.15 K, 34149 kPa) was 977.1 ± 1.2 kg/m3 and the mass density (323.15 K, 34181 kPa) was 977 ± 1.2 kg/m3. For the same compound, the mass density (323.15 K, 34207 kPa) was 977.1 ± 1.2 kg/m3, the mass density (323.15 K, 34235 kPa) was 977.1 ± 1.2 kg/m3 and the mass density (323.15 K, 34262 kPa) was 977.1 ± 1.2 kg/m3. For the same compound, the mass density (323.15 K, 34295 kPa) was 977 ± 1.2 kg/m3, the mass density (323.15 K, 34323 kPa) was 977.2 ± 1.2 kg/m3 and the mass density (323.15 K, 34351 kPa) was 977.1 ± 1.2 kg/m3. The mass density (323.15 K, 34379 kPa) was 977.2 ± 1.2 kg/m3, the mass density (323.15 K, 34415 kPa) was 977.1 ± 1.2 kg/m3 and the mass density (323.15 K, 34444 kPa) was 977.2 ± 1.2 kg/m3. The mass density (323.15 K, 34481 kPa) was 977.2 ± 1.2 kg/m3, the mass density (323.15 K, 34513 kPa) was 977.3 ± 1.2 kg/m3 and the mass density (323.15 K, 34545 kPa) was 977.2 ± 1.2 kg/m3. For the same compound, the mass density (323.15 K, 34570 kPa) was 977.3 ± 1.2 kg/m3, the mass density (323.15 K, 34571 kPa) was 977.2 ± 1.2 kg/m3 and the mass density (323.15 K, 34574 kPa) was 977.2 ± 1.2 kg/m3. It also gave a mass density (323.15 K, 34576 kPa) of 977.3 ± 1.2 kg/m3, a mass density (323.15 K, 34578 kPa) of 977.2 ± 1.2 kg/m3 and a mass density (323.15 K, 34581 kPa) of 977.3 ± 1.2 kg/m3. For the same compound, the mass density (323.15 K, 34584 kPa) was 977.2 ± 1.2 kg/m3, the mass density (323.15 K, 34586 kPa) was 977.3 ± 1.2 kg/m3 and the mass density (323.15 K, 34589 kPa) was 977.3 ± 1.2 kg/m3. It also gave a mass density (323.15 K, 34593 kPa) of 977.2 ± 1.2 kg/m3, a mass density (323.15 K, 34596 kPa) of 977.3 ± 1.2 kg/m3 and a mass density (323.15 K, 34600 kPa) of 977.3 ± 1.2 kg/m3. The mass density (323.15 K, 34605 kPa) was 977.3 ± 1.2 kg/m3, the mass density (323.15 K, 34611 kPa) was 977.3 ± 1.2 kg/m3 and the mass density (323.15 K, 34616 kPa) was 977.2 ± 1.2 kg/m3. The mass density (343.13 K, 13322 kPa) was 950.4 ± 1.2 kg/m3, the mass density (343.13 K, 13336 kPa) was 950.3 ± 1.2 kg/m3 and the mass density (343.13 K, 13347 kPa) was 950.4 ± 1.2 kg/m3. The mass density (343.13 K, 13362 kPa) was 950.3 ± 1.2 kg/m3, the mass density (343.13 K, 13471 kPa) was 950.5 ± 1.2 kg/m3 and the mass density (343.13 K, 13485 kPa) was 950.5 ± 1.2 kg/m3. The mass density (343.14 K, 13145 kPa) was 950 ± 1.2 kg/m3, the mass density (343.14 K, 13156 kPa) was 950.2 ± 1.2 kg/m3 and the mass density (343.14 K, 13167 kPa) was 950.1 ± 1.2 kg/m3. The mass density (343.14 K, 13180 kPa) was 950.2 ± 1.2 kg/m3, the mass density (343.14 K, 13192 kPa) was 950.3 ± 1.2 kg/m3 and the mass density (343.14 K, 13203 kPa) was 950.3 ± 1.2 kg/m3. It also gave a mass density (343.14 K, 13216 kPa) of 950.2 ± 1.2 kg/m3, a mass density (343.14 K, 13227 kPa) of 950.2 ± 1.2 kg/m3 and a mass density (343.14 K, 13238 kPa) of 950.2 ± 1.2 kg/m3. For the same compound, the mass density (343.14 K, 13252 kPa) was 950.1 ± 1.2 kg/m3, the mass density (343.14 K, 13263 kPa) was 950.3 ± 1.2 kg/m3 and the mass density (343.14 K, 13274 kPa) was 950.4 ± 1.2 kg/m3. The mass density (343.14 K, 13286 kPa) was 950.4 ± 1.2 kg/m3, the mass density (343.14 K, 13300 kPa) was 950.3 ± 1.2 kg/m3 and the mass density (343.14 K, 13311 kPa) was 950.2 ± 1.2 kg/m3. The mass density (343.14 K, 13373 kPa) was 950.2 ± 1.2 kg/m3, the mass density (343.14 K, 13384 kPa) was 950.4 ± 1.2 kg/m3 and the mass density (343.14 K, 13399 kPa) was 950.4 ± 1.2 kg/m3. It also gave a mass density (343.14 K, 13410 kPa) of 950.5 ± 1.2 kg/m3, a mass density (343.14 K, 13420 kPa) of 950.4 ± 1.2 kg/m3 and a mass density (343.14 K, 13431 kPa) of 950.5 ± 1.2 kg/m3. For the same compound, the mass density (343.14 K, 13448 kPa) was 950.3 ± 1.2 kg/m3, the mass density (343.14 K, 13460 kPa) was 950.4 ± 1.2 kg/m3 and the mass density (343.14 K, 13497 kPa) was 950.4 ± 1.2 kg/m3. For the same compound, the mass density (343.14 K, 13509 kPa) was 950.4 ± 1.2 kg/m3, the mass density (343.14 K, 13521 kPa) was 950.4 ± 1.2 kg/m3 and the mass density (343.14 K, 13535 kPa) was 950.5 ± 1.2 kg/m3. The mass density (343.14 K, 13547 kPa) was 950.5 ± 1.2 kg/m3, the mass density (343.14 K, 13560 kPa) was 950.6 ± 1.2 kg/m3 and the mass density (343.14 K, 13574 kPa) was 950.5 ± 1.2 kg/m3. For the same compound, the mass density (343.14 K, 13586 kPa) was 950.6 ± 1.2 kg/m3, the mass density (343.14 K, 13598 kPa) was 950.5 ± 1.2 kg/m3 and the mass density (343.14 K, 13610 kPa) was 950.6 ± 1.2 kg/m3. It also gave a mass density (343.14 K, 13622 kPa) of 950.6 ± 1.2 kg/m3, a mass density (343.14 K, 13636 kPa) of 950.6 ± 1.2 kg/m3 and a mass density (343.14 K, 13648 kPa) of 950.7 ± 1.2 kg/m3. It also gave a mass density (343.14 K, 13870 kPa) of 950.7 ± 1.2 kg/m3, a mass density (343.14 K, 13883 kPa) of 950.7 ± 1.2 kg/m3 and a mass density (343.14 K, 13898 kPa) of 950.7 ± 1.2 kg/m3. It also gave a mass density (343.14 K, 13911 kPa) of 950.8 ± 1.2 kg/m3, a mass density (343.14 K, 13926 kPa) of 950.7 ± 1.2 kg/m3 and a mass density (343.14 K, 13938 kPa) of 950.8 ± 1.2 kg/m3. It also gave a mass density (343.14 K, 13951 kPa) of 950.8 ± 1.2 kg/m3, a mass density (343.14 K, 13964 kPa) of 950.8 ± 1.2 kg/m3 and a mass density (343.14 K, 13977 kPa) of 950.7 ± 1.2 kg/m3. For the same compound, the mass density (343.14 K, 13992 kPa) was 950.8 ± 1.2 kg/m3, the mass density (343.14 K, 14004 kPa) was 950.8 ± 1.2 kg/m3 and the mass density (343.14 K, 14018 kPa) was 950.8 ± 1.2 kg/m3.

Reference: the NIST ThermoML archive (doi:10.1021/je060271a)
